In the NIST ThermoML archive (doi:10.1021/je400879v):

Assay: molar heat capacity at constant pressure
Settings: 101.33 kPa, Crystal

COC(=O)[C@H](Cc1ccccc1)NC(=O)[C@H](CC(C)C)NC(=O)[C@H](CCSC)NC=O [methyl formyl-L-methionyl-L-leucyl-L-phenylalaninate]
Settings | molar heat capacity at constant pressure [J/K/mol]
5 K | 1.99
6.02 K | 2.6
6.13 K | 2.71
6.28 K | 2.91
6.43 K | 3.21
6.59 K | 3.52
6.73 K | 3.88
6.88 K | 4.29
7.04 K | 4.56
7.19 K | 4.97
7.35 K | 5.42
7.52 K | 5.83
7.66 K | 6.28
7.84 K | 6.73
7.98 K | 7.23
8.17 K | 7.72
8.33 K | 8.13
8.5 K | 8.58
8.7 K | 9.08
8.84 K | 9.48
8.98 K | 9.89
9.13 K | 10.3
9.3 K | 10.7
9.45 K | 11
9.62 K | 11.5
9.78 K | 11.8
9.95 K | 12.3
10 K | 12.5
10.27 K | 13.2
10.63 K | 14.1
11.04 K | 15
11.45 K | 16
11.88 K | 17.1
12.29 K | 18
12.79 K | 19.2
13.24 K | 20.4
13.71 K | 21.7
14.18 K | 22.7
14.65 K | 24.1
15 K | 25.1
15.12 K | 25.3
15.6 K | 26.78
15.99 K | 28
16.64 K | 29.85
17.1 K | 31.58
17.62 K | 33.24
18.1 K | 34.79
18.78 K | 37.21
19.22 K | 38.75
19.72 K | 40.59
20 K | 41.76
21.41 K | 47.32
23.4 K | 55.2
25 K | 61.13
25.67 K | 63.45
27.96 K | 71.89
30 K | 79.28
30.29 K | 80.5
32.65 K | 88.71
35.04 K | 96.64
37.44 K | 105
39.87 K | 112.9
40 K | 113.3
42.32 K | 120.6
44.78 K | 127.7
47.26 K | 134.1
49.75 K | 139.9
50 K | 140.8
52.01 K | 145.9
54.78 K | 153.1
57.3 K | 160.1
59.87 K | 167.1
60 K | 167.6
62.41 K | 174.3
64.96 K | 181.3
66.9 K | 186.5
70 K | 194.3
70.06 K | 194.1
72.6 K | 201
75.15 K | 206
77.73 K | 212.1
80 K | 216.1
80.1 K | 216.1
82.93 K | 221.7
85.5 K | 227
88.2 K | 232.3
90 K | 236.3
90.6 K | 238.4
90.85 K | 237.1
93.51 K | 243.4
96.19 K | 248.8
98.88 K | 253.3
100 K | 256.4
101.58 K | 258.9
104.28 K | 264
106.98 K | 269.4
109.69 K | 274.9
110 K | 275.6
112.38 K | 279.5
115.08 K | 284.3
117.78 K | 289.3
120 K | 292.9
120.47 K | 293.3
123.16 K | 297.5
125.85 K | 302.5
128.53 K | 306.7
130 K | 309.1
131.22 K | 310.6
133.99 K | 316.2
136.67 K | 319.1
139.35 K | 323.5
140 K | 324.7
142.02 K | 328.1
144.68 K | 332.5
147.35 K | 336.5
150 K | 340.1
150.01 K | 340.6
152.68 K | 344.7
155.33 K | 348.5
157.99 K | 352.9
160 K | 355.6
160.64 K | 357.2
163.28 K | 361.6
165.92 K | 365.7
168.56 K | 368.7
170 K | 371.3
171.19 K | 373.7
174.6 K | 377.8
176.09 K | 381.5
179.5 K | 385.9
180 K | 387.3
182.11 K | 390.6
184.71 K | 394.8
187.31 K | 398.3
189.9 K | 402.2
190 K | 403.7
192.49 K | 407.4
195.07 K | 411.8
197.64 K | 416.1
200 K | 420.3
200.2 K | 420
202.74 K | 423.8
205.27 K | 428.2
207.77 K | 433.6
210 K | 437.2
210.28 K | 436.5
212.77 K | 442.5
215.23 K | 446.4
217.6 K | 450.8
220 K | 454.3
220.02 K | 455.6
222.4 K | 459.1
224.71 K | 463.1
227.02 K | 467.1
229.33 K | 471.1
230 K | 471.6
231.66 K | 475.2
234 K | 478.4
236.36 K | 484.2
238.72 K | 488
240 K | 489
241.09 K | 490.9
243.46 K | 493.2
245.83 K | 498.9
248.18 K | 503
250 K | 506.5
250.5 K | 507.1
252.78 K | 509.6
254.83 K | 514.5
257.07 K | 518.7
259.3 K | 523.3
260 K | 524.3
261.5 K | 528
263.68 K | 532.6
265.84 K | 535.2
267.99 K | 539.2
270 K | 542.4
270.16 K | 543.2
272.34 K | 547.3
274.5 K | 552.1
276.67 K | 554.9
277.1 K | 557.8
279.97 K | 561.2
280 K | 561.1
282.11 K | 564.9
284.23 K | 568.8
286.34 K | 571.5
288.8 K | 578
290 K | 580.7
290.49 K | 581
292.53 K | 584.6
294.54 K | 587.8
296.39 K | 591.6
298.15 K | 597.6
298.4 K | 596.2
300 K | 601.6
300.24 K | 601.4
302.09 K | 606.6
304.77 K | 614.7
307.42 K | 619.1
309.83 K | 624.8
310 K | 624.4
312.19 K | 631
314.41 K | 635
316.68 K | 638.7
318.91 K | 645.4
320 K | 649.7
321.09 K | 652.2
323.22 K | 661.1
325.19 K | 665.5
327.12 K | 669.6
329.13 K | 677.2
330 K | 678.4
330.96 K | 681.9
332.75 K | 688.8
334.5 K | 691.9
335.18 K | 695
336.88 K | 700.5
338.54 K | 704.4
340 K | 711.3
340.17 K | 710.6
341.74 K | 717
343.27 K | 723.9
344 K | 726
